Experimental data reported in ChEMBL document CHEMBL3734695, “Cytotoxic potential of dispirooxindolo/acenaphthoquino andrographolide derivatives against MCF-7 cell line” (Medchemcomm, 2015).
Calls of active or inactive are those of the source. No cut-off for these calls is given here.

Legend:
MCF7 [1] = experiment: Induction of apoptosis in human MCF7 cells assessed as increase in cleaved caspase-9 level at IC50 after 48 hrs by western blot analysis; type: functional, cell-based
MCF7 [2] = experiment: Cytotoxicity against human MCF7 cells assessed as growth inhibition after 72 hrs by MTT assay; type: functional, cell-based; conditions: MCF7, 72 h
MCF7 [3] = experiment: Induction of apoptosis in human MCF7 cells assessed as progressive cell detachment at IC50 after 24 hrs by inverted phase contrast microscopic analysis; type: functional, cell-based
MCF7 [4] = experiment: Induction of apoptosis in human MCF7 cells assessed as rounded cells at IC50 after 24 hrs by inverted phase contrast microscopic analysis; type: functional, cell-based
MCF7 [5] = experiment: Induction of apoptosis in human MCF7 cells assessed as dead cells at IC50 after 24 hrs by annexin V-FITC/propidium iodide staining based flow cytometric analysis (reference value: 0.2%); type: functional
MCF7 [6] = experiment: Induction of apoptosis in human MCF7 cells assessed as late apoptotic cells at IC50 after 24 hrs by annexin V-FITC/propidium iodide staining based flow cytometric analysis (reference value: 0.0%); type: functional
MCF7 [7] = experiment: Induction of apoptosis in human MCF7 cells assessed as viable cells at IC50 after 24 hrs by annexin V-FITC/propidium iodide staining based flow cytometric analysis (reference value: 99.8%); type: functional
MCF7 [8] = experiment: Induction of apoptosis in human MCF7 cells assessed as early apoptotic cells at IC50 after 24 hrs by annexin V-FITC/propidium iodide staining based flow cytometric analysis (reference value: 0.1%); type: functional
MCF7 [9] = experiment: Induction of apoptosis in human MCF7 cells assessed as dead cells at IC50 after 48 hrs by annexin V-FITC/propidium iodide staining based flow cytometric analysis (reference value: 0.2%); type: functional
MCF7 [10] = experiment: Induction of apoptosis in human MCF7 cells assessed as late apoptotic cells at IC50 after 48 hrs by annexin V-FITC/propidium iodide staining based flow cytometric analysis (reference value: 0.0%); type: functional
MCF7 [11] = experiment: Induction of apoptosis in human MCF7 cells assessed as viable cells at IC50 after 48 hrs by annexin V-FITC/propidium iodide staining based flow cytometric analysis (reference value: 99.8%); type: functional
MCF7 [12] = experiment: Induction of apoptosis in human MCF7 cells assessed as early apoptotic cells at IC50 after 48 hrs by annexin V-FITC/propidium iodide staining based flow cytometric analysis (reference value: 0.1%); type: functional
MCF7 [13] = experiment: Induction of apoptosis in human MCF7 cells assessed as depolarized mitochondrial membrane at IC50 after 24 hrs by JC-1 dye based FACS analysis (reference value: 10%); type: functional
MCF7 [14] = experiment: Induction of apoptosis in human MCF7 cells assessed as polarized mitochondrial membrane at IC50 after 24 hrs by JC-1 dye based FACS analysis (reference value: 90%); type: functional
MCF7 [15] = experiment: Induction of apoptosis in human MCF7 cells assessed as depolarized mitochondrial membrane at IC50 after 48 hrs by JC-1 dye based FACS analysis (reference value: 10%); type: functional
MCF7 [16] = experiment: Induction of apoptosis in human MCF7 cells assessed as polarized mitochondrial membrane at IC50 after 48 hrs by JC-1 dye based FACS analysis (reference value: 90%); type: functional
MCF7 [17] = experiment: Induction of ROS generation in human MCF7 cells at IC50 after 24 hrs by CM-H2DCFDA staining based flow cytometric analysis (reference value: 12.6%); type: functional
MCF7 [18] = experiment: Induction of apoptosis in human MCF7 cells assessed as increase in cleaved caspase-7 level at IC50 after 48 hrs by western blot analysis; type: functional, cell-based
MCF7 [19] = experiment: Induction of apoptosis in human MCF7 cells assessed as increase in cleaved PARP-1 level at IC50 after 48 hrs by western blot analysis; type: functional, cell-based
MCF7 [20] = experiment: Cell cycle arrest in human MCF7 cells assessed as accumulation at G0/G1 phase at IC50 after 24 hrs by propidium iodide staining based flow cytometric analysis (reference value: 59.5%); type: functional
MCF7 [21] = experiment: Cell cycle arrest in human MCF7 cells assessed as accumulation at G2/M phase at IC50 after 24 hrs by propidium iodide staining based flow cytometric analysis (reference value: 24.2%); type: functional
MCF7 [22] = experiment: Cell cycle arrest in human MCF7 cells assessed as accumulation at S phase at IC50 after 24 hrs by propidium iodide staining based flow cytometric analysis (reference value: 16.3%); type: functional
MCF7 [23] = experiment: Cell cycle arrest in human MCF7 cells assessed as accumulation at G0/G1 phase at IC50 after 48 hrs by propidium iodide staining based flow cytometric analysis (reference value: 59.5%); type: functional
MCF7 [24] = experiment: Cell cycle arrest in human MCF7 cells assessed as accumulation at G2/M phase at IC50 after 48 hrs by propidium iodide staining based flow cytometric analysis (reference value: 24.2%); type: functional
MCF7 [25] = experiment: Cell cycle arrest in human MCF7 cells assessed as accumulation at S phase at IC50 after 48 hrs by propidium iodide staining based flow cytometric analysis (reference value: 16.3%); type: functional
MCF7 [26] = experiment: Induction of apoptosis in human MCF7 cells assessed as ratio of depolarized to polarized mitochondrial membrane at IC50 by JC-1 dye based FACS analysis; type: functional, cell-based; conditions: TDE = time-dependent effect

SMILES	Activity (MCF7 [1])	IC50 (MCF7 [2]) [µM]	Activity (MCF7 [3])	Activity (MCF7 [4])	Activity (MCF7 [5]) [%]	Activity (MCF7 [6]) [%]	Activity (MCF7 [7]) [%]	Activity (MCF7 [8]) [%]	Activity (MCF7 [9]) [%]	Activity (MCF7 [10]) [%]	Activity (MCF7 [11]) [%]	Activity (MCF7 [12]) [%]	Activity (MCF7 [13]) [%]	Activity (MCF7 [14]) [%]	Activity (MCF7 [15]) [%]	Activity (MCF7 [16]) [%]	Activity (MCF7 [17]) [%]	Activity (MCF7 [18])	Activity (MCF7 [19])	Activity (MCF7 [20]) [%]	further results
C=C1CC[C@@H]2[C@](C)(CO)[C@H](O)CC[C@@]2(C)[C@@H]1CC1CN(Cc2ccccc2)[C@@]2(C(=O)Nc3ccc(Br)cc32)[C@]12C(=O)OC[C@H]2O (some centres not stated)	Active	12.8	Active	Active	0.9	2	61.4	35.7	0	4.4	1.7	93.9	46.1	54.1	93.1	6.4	98.1	Active	Active	40.3	Activity (MCF7 [21]): 31.1%; Activity (MCF7 [22]): 28.5%; Activity (MCF7 [23]): 34.2%; Activity (MCF7 [24]): 22%; Activity (MCF7 [25]): 43%; Activity (MCF7 [26]): tde
C=C1CC[C@@H]2[C@](C)(CO)[C@H](O)CC[C@@]2(C)[C@@H]1CC1CN(Cc2ccccc2)[C@@]2(C(=O)Nc3c(F)cccc32)[C@]12C(=O)OC[C@H]2O (some centres not stated)	Active	13.7	Active	Active	0.6	0.4	76.3	22.7	1.4	4.1	36.7	57.8	50	50.1	97.5	2.5	96.2	Active	Active	46.6	Activity (MCF7 [21]): 22.2%; Activity (MCF7 [22]): 31.1%; Activity (MCF7 [23]): 33.3%; Activity (MCF7 [24]): 17.4%; Activity (MCF7 [25]): 48.1%; Activity (MCF7 [26]): tde
N#CC(C#N)=NNc1cccc(Cl)c1 [CARBONYL CYANIDE M-CHLOROPHENYLHYDRAZONE]													100	0							
C=C1CC[C@@H]2[C@](C)(CO)[C@H](O)CC[C@@]2(C)[C@@H]1CC1CN(Cc2ccccc2)[C@@]2(C(=O)Nc3ccc(C)cc32)[C@]12C(=O)OC[C@H]2O (some centres not stated)	Active	10.9	Active	Active	0.8	0.6	79.2	19.7	2.2	1.5	77.8	18.5	79	21	88.9	11.1	99.9	Active	Active	42.4	Activity (MCF7 [21]): 29.1%; Activity (MCF7 [22]): 28.5%; Activity (MCF7 [23]): 37.9%; Activity (MCF7 [24]): 19.4%; Activity (MCF7 [25]): 41.7%; Activity (MCF7 [26]): tde
C=C1CC[C@@H]2[C@](C)(CO)[C@H](O)CC[C@@]2(C)[C@@H]1CC1CN(Cc2ccccc2)[C@@]2(C(=O)c3cccc4cccc2c34)[C@]12C(=O)OC[C@H]2O (some centres not stated)	Active	8.9	Active	Active	0.3	0.8	56.5	42.4	0	4.6	0.4	95	83	17	96.4	3.6	97.7	Active	Active	46.3	Activity (MCF7 [21]): 29.8%; Activity (MCF7 [22]): 23.9%; Activity (MCF7 [23]): 32.3%; Activity (MCF7 [24]): 27.5%; Activity (MCF7 [25]): 38.6%; Activity (MCF7 [26]): tde
C=C1CC[C@@H]2[C@](C)(CO)[C@H](O)CC[C@@]2(C)[C@@H]1CC1CN(Cc2ccccc2)[C@@]2(C(=O)Nc3ccc(Cl)cc32)[C@]12C(=O)OC[C@H]2O (some centres not stated)	Active	12.7	Active	Active	0.9	0.7	71.5	28.5	0.2	7.1	7.9	84.8	62.3	37.7	89.8	10.2	99.4	Active	Active	42.7	Activity (MCF7 [21]): 29.5%; Activity (MCF7 [22]): 27.8%; Activity (MCF7 [23]): 42.9%; Activity (MCF7 [24]): 20.2%; Activity (MCF7 [25]): 35.8%; Activity (MCF7 [26]): tde
